Values joined by “and” are separate entries in the source; they are usually repeats but may differ in a detail not shown here. Equal values may be shown once.
What was measured:
[1] = target: T1, human recombinant histamine H1 receptor (Homo sapiens, UniProt P35367); experiment: Histamine H1 radioligand binding ([3H]Pyrilamine); conditions: for inhibition at 1 µM: read-out: Histamine Binding (1 μM) H1, Percentage Inhibition
T1 construct: expressed in transfected cells; host or cells: CHO cells
Description: To evaluate in radioligand binding assays the activity of compounds of the invention, human recombinant histamine H1 receptor expressed in Chinese hamster ovary (CHO) cells (De Backer, M. D. et al., Biochem. Biophys. Res. Comm. 197(3):1601, 1993) in a modified Tris-HCl buffer (50 mM Tris-HCl, pH 7.4, 2 mM MgCl2, 100 mM NaCl, 250 mM Sucrose) was used. Compounds of the invention were incubated with 1.2 nM [^3H]Pyrilamine for 180 minutes at 25° C. Non-specific binding was estimated in the presence of 1 μM pyrilamine. Receptor proteins were filtered and washed, the filters were then counted to determine [^3H]Pyrilamine specifically bound. Compounds were screened at 1 μM or lower, using 1% DMSO as vehicle. Biochemical assay results are presented as the percent inhibition of specific binding in Table 2.

[2] = target: T2, human recombinant adrenergic α1D receptor (Homo sapiens, UniProt P25100); experiment: Adrenergic α1D radioligand binding ([3H]Prozosin); conditions: for inhibition at 1 µM: read-out: Adrenergic α1D, inhibition of ligand binding (1 μM)
T2 construct: expressed in transfected cells; host or cells: HEK-293 cells
T2 sequence (P25100 1-572): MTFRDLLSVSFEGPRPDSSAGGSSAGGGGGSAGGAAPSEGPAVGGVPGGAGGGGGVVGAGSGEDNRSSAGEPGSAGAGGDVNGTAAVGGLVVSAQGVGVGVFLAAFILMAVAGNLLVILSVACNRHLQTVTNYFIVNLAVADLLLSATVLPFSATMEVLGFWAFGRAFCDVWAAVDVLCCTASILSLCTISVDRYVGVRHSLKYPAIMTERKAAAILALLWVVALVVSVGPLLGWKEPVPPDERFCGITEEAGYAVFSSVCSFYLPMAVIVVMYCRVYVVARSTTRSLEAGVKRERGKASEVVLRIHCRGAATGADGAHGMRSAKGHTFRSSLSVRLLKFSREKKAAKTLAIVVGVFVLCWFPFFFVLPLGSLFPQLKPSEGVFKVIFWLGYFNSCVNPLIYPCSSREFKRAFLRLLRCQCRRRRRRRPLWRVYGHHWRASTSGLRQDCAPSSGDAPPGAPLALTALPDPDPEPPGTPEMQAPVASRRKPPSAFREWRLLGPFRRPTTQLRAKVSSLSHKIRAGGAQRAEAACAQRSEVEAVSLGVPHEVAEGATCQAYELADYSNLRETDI
Description: To evaluate in radioligand binding assays the activity of compounds of the invention, human recombinant adrenergic α1D receptor expressed in human embryonic kidney (HEK-293) cells (Kenny, B. A. et al. Br. J. Pharmacol. 115(6):981, 1995) in a 50 mM Tris-HCl buffer, pH 7.4, was used. Compounds of invention were incubated with 0.6 nM [^3H]Prozosin for 60 minutes at 25° C. Non-specific binding was estimated in the presence of 10 μM phentolamine. Receptor proteins were filtered and washed, the filters were then counted to determine [^3H]Prozosin specifically bound. Compounds were screened at 1 μM or lower, using 1% DMSO as vehicle. Biochemical assay results are presented as the percent inhibition of specific binding in Table 3.

[3] = target: T3, human recombinant adrenergic α2A receptor (Homo sapiens, UniProt P08913); experiment: Adrenergic α2A radioligand binding ([3H]MK-912); conditions: for inhibition at 1 µM: read-out: Adrenergic α2A, inhibition of ligand binding (1 μM)
T3 construct: expressed in transfected cells; host or cells: insect Sf9 cells
T3 sequence (P08913 1-465): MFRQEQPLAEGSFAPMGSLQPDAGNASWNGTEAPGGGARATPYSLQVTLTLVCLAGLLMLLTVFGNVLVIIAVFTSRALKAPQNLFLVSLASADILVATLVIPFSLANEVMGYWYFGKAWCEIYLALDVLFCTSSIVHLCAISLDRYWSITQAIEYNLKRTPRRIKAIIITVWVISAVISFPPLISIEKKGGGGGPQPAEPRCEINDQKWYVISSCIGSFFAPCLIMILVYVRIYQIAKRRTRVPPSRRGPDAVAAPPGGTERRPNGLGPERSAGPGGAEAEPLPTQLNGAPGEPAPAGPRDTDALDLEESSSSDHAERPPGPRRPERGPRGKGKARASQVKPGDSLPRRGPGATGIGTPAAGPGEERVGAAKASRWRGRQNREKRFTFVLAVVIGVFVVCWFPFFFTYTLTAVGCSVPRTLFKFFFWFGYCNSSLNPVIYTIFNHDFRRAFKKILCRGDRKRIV
Description: To evaluate in radioligand binding assays the activity of compounds of the invention, human recombinant adrenergic α2A receptor expressed in insect Sf9 cells (Uhlen S et al. J Pharmacol Exp Ther. 271:1558, 1994) in a modified Tris-HCl buffer (50 mM Tris-HCl, pH 7.4, 12.5 mM MgCl2, 2 mM EDTA) was used. Compounds of invention were incubated with 1 nM [^3H]MK-912 for 60 minutes at 25° C. MK912 is (2S-trans)-1,3,4,5′,6,6′,7,12b-octahydro-1′,3′-dimethyl-spiro[2H-benzofuro[2,3-a]quinolizine-2,4′(1′H) -pyrimidin]-2′(3′H)-one hydrochloride Non-specific binding was estimated in the presence of 10 μM WB-4101 (2-(2,6-Dimethoxyphenoxyethyl)aminomethyl-1,4-benzodioxane hydrochloride). Receptor proteins were filtered and washed, the filters were then counted to determine [^3H]MK-912 specifically bound. Compounds were screened at 1 μM or lower, using 1% DMSO as vehicle. Biochemical assay results are presented as the percent inhibition of specific binding in Table 3.

[4] = target: T4, human recombinant serotonin (5-Hydroxytryptamine) 5-HT2A receptor (Homo sapiens, UniProt P28223); experiment: Serotonin 5-HT2A radioligand binding ([3H]Ketanserin); conditions: for inhibition at 1 µM: read-out: Serotonin 5-HT2A, inhibition of ligand binding (1 μM)
T4 construct: expressed in transfected cells; host or cells: CHO-K1 cells
T4 sequence (P28223 whole entry): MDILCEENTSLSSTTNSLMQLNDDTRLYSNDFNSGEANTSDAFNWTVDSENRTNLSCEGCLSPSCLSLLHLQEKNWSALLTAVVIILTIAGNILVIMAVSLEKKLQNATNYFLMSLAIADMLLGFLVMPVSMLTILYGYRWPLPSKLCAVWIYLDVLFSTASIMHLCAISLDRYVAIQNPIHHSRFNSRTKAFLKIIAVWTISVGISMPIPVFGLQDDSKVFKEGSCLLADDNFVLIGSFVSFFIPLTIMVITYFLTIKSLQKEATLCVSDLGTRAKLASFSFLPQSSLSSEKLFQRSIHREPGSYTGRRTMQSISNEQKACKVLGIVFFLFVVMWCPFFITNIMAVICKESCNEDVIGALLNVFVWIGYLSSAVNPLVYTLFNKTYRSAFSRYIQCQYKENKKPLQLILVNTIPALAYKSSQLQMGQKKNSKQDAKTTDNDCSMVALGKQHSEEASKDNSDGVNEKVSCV
Description: To evaluate in radioligand binding assays the activity of compounds of the invention, human recombinant serotonin (5-Hydroxytryptamine) 5-HT2A receptor expressed in Chinese hamster ovary (CHO-K1) cells (Bonhaus, D. W. et al. Br. J. Pharmacol. 115:622, 1995; Saucier, C. and Albert, P. R., J. Neurochem. 68:1998, 1997) in a 50 mM Tris-HCl buffer, pH 7.4, was used. Compounds of the invention were incubated with 0.5 nM [^3H]Ketanserin for 60 minutes at 25° C. Non-specific binding was estimated in the presence of 1 μM Mianserin. Receptor proteins were filtered and washed, the filters were then counted to determine [^3H]Ketanserin specifically bound. Compounds were screened at 1 μM or lower, using 1% DMSO as vehicle. Biochemical assay results are presented as the percent inhibition of specific binding in Table 4.

[5] = compound at 1 μM, inhibition of specific [3H]Pyrilamine binding

T1 sequence (P35367 whole entry): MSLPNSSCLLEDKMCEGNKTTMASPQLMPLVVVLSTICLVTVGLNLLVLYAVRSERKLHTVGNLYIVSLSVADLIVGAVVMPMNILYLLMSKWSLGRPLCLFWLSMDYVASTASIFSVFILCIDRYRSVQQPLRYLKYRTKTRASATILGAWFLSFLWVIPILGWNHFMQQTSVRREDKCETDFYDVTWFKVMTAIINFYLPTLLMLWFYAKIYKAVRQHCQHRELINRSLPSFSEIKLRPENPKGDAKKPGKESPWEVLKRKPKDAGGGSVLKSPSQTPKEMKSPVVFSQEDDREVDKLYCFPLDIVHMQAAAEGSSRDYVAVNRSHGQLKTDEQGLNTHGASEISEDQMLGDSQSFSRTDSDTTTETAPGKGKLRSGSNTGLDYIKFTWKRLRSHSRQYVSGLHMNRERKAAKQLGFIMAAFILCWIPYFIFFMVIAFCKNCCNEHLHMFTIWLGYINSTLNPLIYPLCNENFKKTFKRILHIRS

Structure (SMILES) | inhibition at 1 µM [1, 5] [%] | inhibition at 1 µM ([2]; 1 μM) [%] | inhibition at 1 µM ([3]; 1 μM) [%] | inhibition at 1 µM [4] [%] | other results
Cc1ccc2c(c1)c1c(n2CCc2ccccc2)CC2CCC1N2C (stereo not shown) [Compound 2] | 99 | 94 | 100 | 96 | inhibition at 0.01 µM ([1]; compound at 10.0 nM, read-out: Histamine Binding H1, Percentage Inhibition (10.0 nM)): 42%; inhibition at 0.1 µM ([1]; compound at 0.1 μM, read-out: Histamine Binding H1, Percentage Inhibition (0.1 μM)): 85%; inhibition at 0.03 µM ([2]; 0.03 μM, read-out: Adrenergic α1D, inhibition of ligand binding (0.03 μM)): 44%; inhibition at 0.3 µM ([2]; 0.3 μM, read-out: Adrenergic α1D, inhibition of ligand binding (0.3 μM)): 85%; inhibition at 0.01 µM ([3]; 10.0 nM, read-out: Adrenergic α2A, inhibition of ligand binding (10.0 nM)): 47%; inhibition at 0.1 µM ([3]; 0.1 μM, read-out: Adrenergic α2A, inhibition of ligand binding (0.1 μM)): 88%
CN1C2CCC1c1c(n(CCC(=O)N3CCNC(=O)C3)c3ccc(Cl)cc13)C2 (stereo not shown) [Compound 3] | 12 | 6 | 8 | 3 | 
CN1C2CCC1c1c(n(CCC(=O)N3CCCC3)c3ccc(Cl)cc13)C2 (stereo not shown) [Compound 5] | 32 | 21 | 4 |  | 
CC(=O)N1CCN(C(=O)CCn2c3c(c4cc(Cl)ccc42)C2CCC(C3)N2C)CC1 (stereo not shown) [Compound 8] | 16 | 8 | -2 | 1 | 
CN1C2CCC1c1c(n(CCC(=O)N3CCNCC3)c3ccc(Cl)cc13)C2 (stereo not shown) [Compound 9] | 6 | 9 | 9 | 15 | 
CN1C2CCC1c1c(n(CCC(=O)N3CC[S+]([O-])CC3)c3ccc(Cl)cc13)C2 (stereo not shown) [Compound 10] | 7 | 7 | -7 | -5 | 
CN1C2CCC1c1c(n(CCC(=O)N3CCS(=O)(=O)CC3)c3ccc(Cl)cc13)C2 (stereo not shown) [Compound 11] | 2 | -11 | -10 | -8 | 
CN1C2CCC1c1c(n(CCC(=O)N3CCSCC3)c3ccc(Cl)cc13)C2 (stereo not shown) [Compound 12] | 29 | 3 | 0 | 10 | 
CN1C2CCC1c1c(n(CCC(=O)N3CCOCC3)c3ccc(Cl)cc13)C2 (stereo not shown) [Compound 13] | 28 | 8 | 2 |  | 
Cc1ccc2c(c1)c1c(n2CCc2ccc(C)nc2)CC2CCC1N2C (stereo not shown) [Compound 32] | 94 | 53 | 17 | 15 | 
CN1C2CCC1c1c(n(CCc3ccc(Cl)cc3)c3ccc(F)cc13)C2 (stereo not shown) [Compound 33] | 86 | 36 | 69 |  | 
CN1C2CCC1c1c(n(CCc3ccc(C(F)(F)F)nc3)c3ccc(Cl)cc13)C2 (stereo not shown) [Compound 34] | 52 | 61 | 42 |  | Histamine Binding (1 μM) H1, Percentage Inhibition ([1]; compound at 1 μM, inhibition of specific [3H]Pyrilamine binding, 1 µM): 55.0%; Adrenergic α1D, inhibition of ligand binding (1 μM) ([2]; 1 μM): 56.0%; Adrenergic α2A, inhibition of ligand binding (1 μM) ([3]; 1 μM): 39.0%; Serotonin 5-HT2A, inhibition of ligand binding (1 μM) ([4]; 1 µM): 36.0/ % and 65.0%
CN1C2CCC1c1c(n(CCc3ccc(F)cc3)c3ccc(F)cc13)C2 (stereo not shown) [Compound 35] | 93 | 78 | 93 |  | 
CN1C2CCC1c1c(n(CCCc3ccc(C(F)(F)F)nc3)c3ccc(Cl)cc13)C2 (stereo not shown) [Compound 37] | 78 | 12 | 10 | 23 | 
CN1C2CCC1c1c(n(CC(=O)N3CCOCC3)c3ccc(Cl)cc13)C2 (stereo not shown) [Compound 59, 2-(2-chloro-11-methyl-5,6,7,8,9,10-Hexahydro-7,10-iminocyclohept[b]indol-5-yl)-1-morpholinoethanone] | 7 | 2 | 17 |  | 
CN1C2CCC1c1c(n(CC(=O)N3CCCC3)c3ccc(Cl)cc13)C2 (stereo not shown) [Compound 60] | 21 | 1 | 2 |  | 
Cc1ccc(CCn2c3c(c4cc(Cl)ccc42)C2CCC(C3)N2C)cc1 (stereo not shown) [Compound 61] | 98 | 80 | 97 |  | 
Cc1ccc2c(c1)c1c(n2CCc2ccc(F)cc2)CC2CCC1N2C (stereo not shown) [Compound 62] | 98 | 83 | 96 |  | 
